Two compounds from patent publication US20240300973A1, “MODULATORS OF FPR1 AND METHODS OF USING THE SAME” (BIOFRONT THERAPEUTICS (BEIJING) CO., LTD., priority 2021, published 2024) can be followed below.

The experiment concerns the target T1, FPR1 (UniProt P21462).
T1 sequence (P21462 1-350): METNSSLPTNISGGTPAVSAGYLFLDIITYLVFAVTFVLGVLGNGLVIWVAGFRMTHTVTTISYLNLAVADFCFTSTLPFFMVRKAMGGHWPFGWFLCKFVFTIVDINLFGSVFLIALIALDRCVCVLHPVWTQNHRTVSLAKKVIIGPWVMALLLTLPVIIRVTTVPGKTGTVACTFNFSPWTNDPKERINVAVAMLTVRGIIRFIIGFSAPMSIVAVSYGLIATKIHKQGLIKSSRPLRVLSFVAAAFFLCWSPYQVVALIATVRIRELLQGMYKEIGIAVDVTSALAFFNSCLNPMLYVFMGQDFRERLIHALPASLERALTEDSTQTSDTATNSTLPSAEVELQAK
Put plainly: fMLP-FPR1 mediated intracellular calcium signaling assay in FPR1-overexpressing 293T cells. It is filed as cell-based, human or mouse. As to conditions: inhibition of fMLP-stimulated intracellular calcium change; hFPR1 or mFPR1 overexpressing 293T cells; 10 min pre-incubation; INDO-1 AM, FACS; read-out: IC50 (nM), potency in calcium signaling assay. As to the method: The effects of the compounds of this disclosure on regulating the FPR1-mediated cell signaling were measured by monitoring the cellular calcium level change, as illustrated by the exemplary examples in Table 2. The dose responses of the illustrated examples are reported categorically using the following ranking criteria: *** (IC50≤100 nM); ** (IC50≥100 to ≤1000 nM); * (IC50≥1000 to ≤10,000 nM); N.D.—not detected.
The coding DNA sequence (CDS) of human FPR1 (NM_001193306) and mouse FPR1 (NM_013521) were cloned and inserted to the lentivirus vector GV367 (Vector information: • http://www.genechem.com.cn/index/supports/tool_search.html?keywords=GV367) under the conduction of pCMV promoter. 293T cells were cultured in H-DMEM supplemented with 10% FBS and 1% penicillin—streptomycin (PS) at 37° C. in 5% CO2 Incubator. […] The overexpression of human or mouse FPR1 in 293 T cells were detected by immunostaining with anti-mouse or human FPR1 antibodies (Biolegend or Antibody Online). […]
Cultured hFPR1 or mFPR1 overexpressing 293T cells were labeled with 1 μM INDO-1 AM calcium sensor dye (eBioscience) for 30 min at 37° C. […] The cytoplasmic calcium levels were then measured by FACS Aria III at 37° C. prior to and after the stimulation of fMLP. […] The change of intracellular calcium was calculated as follow: (basal value-minimum value)/basal value×100%. […]

Consider `Cc1ccc(O)c(-c2onc3c2C(c2ccc(C(F)(F)F)cc2)N(C2CCOCC2)C3=O)c1` (racemic) [Compound 1, rac-3-(2-hydroxy-5-methylphenyl)-5-(tetrahydro-2H-pyran-4-yl)-4-(4-(trifluoromethyl)phenyl)-4,5-dihydro-6H-pyrrolo[3,4-c]isoxazol-6-one], for which the IC50 lay within 1000 to 10000 nM.

Consider `Cc1ccc(O)c(-c2noc3c2C(c2ccc(C(F)(F)F)cc2)N(C2CCOCC2)C3=O)c1` (racemic) [Compound 2, rac-3-(2-hydroxy-5-methylphenyl)-5-(tetrahydro-2H-pyran-4-yl)-4-(4-(trifluoromethyl)phenyl)-4,5-dihydro-6H-pyrrolo[3,4-d]isoxazol-6-one], for which the half-inhibitory concentration (IC50) was 100 to 1000 nM.
